± gives the standard deviation of the reports.
| glass transition temperature [°C] | Structure (SMILES) |
| --- | --- |
| 134.00 | */C=C/c1nc(/C=C/c2ccc3c(c2)c2cc(*)ccc2n3CCCCCC)c(C#N)c(/C=C/c2ccc(N(c3ccccc3)c3ccccc3)cc2)c1C#N (repeat unit) |
| 245.00 | *CC(*)c1ccc(B(Oc2ccc(-c3c(F)c(F)c(F)c(F)c3F)c3cccnc23)c2ccc(C(C)(C)C)cc2)cc1 (repeat unit) |
| -30.00 | *CC(*)C(=O)OCC(F)(F)C(F)(F)C(F)(F)F (repeat unit) |
| 275.00 | *c1ccc(Oc2ccc(-c3ccc(Oc4ccc(N5C(=O)c6cccc(Oc7cc(C(C)(C)C)c(Oc8cccc9c8C(=O)N(*)C9=O)cc7C(C)(C)C)c6C5=O)cc4)cc3)cc2)cc1 (repeat unit) |
| 145.00 | *CCN(CCOC(=O)NCC1(C)CC(NC(=O)O*)CC(C)(C)C1)c1ccc(C=C(C#N)C#N)cc1 (repeat unit) |
| 150.00 | *Oc1ccc(NC(=O)CCCCCCCCCCC(=O)Nc2ccc(*)cc2)cc1 (repeat unit) |
| 239.00 | *C1CCC(CC2CCC(N3C(=O)C4C5C=CC(C6C(=O)N(*)C(=O)C56)C4C3=O)CC2)CC1 (repeat unit) |
| 322.00 | *Cc1ccc2nc(-c3cc(-c4nc5ccc(*)cc5c(=O)o4)cc(N4C(=O)c5ccccc5C4=O)c3)oc(=O)c2c1 (repeat unit) |
| 305.00 | *c1ccc(Oc2ccc(-c3cc(-c4ccccc4)c4cc(Oc5ccc6nc(*)c(-c7ccccc7)c(-c7ccccc7)c6c5)ccc4n3)cc2)cc1 (repeat unit) |
| 279.00 | *c1ccc(OC(=O)c2ccc(C(=O)Oc3ccc(C4(*)OC(=O)c5ccccc54)cc3)cc2)cc1 (repeat unit) |
| 52.00 | *CCCCCCCCNC(=O)CCCCCCCCCCCCCCC(=O)N* (repeat unit) |
| 284.00 | *c1ccc(C(=O)Nc2ccc(-c3ccccc3NC(=O)c3ccc(S(*)(=O)=O)cc3)cc2)cc1 (repeat unit) |
| 63.00 | *Oc1ccc(CC(NC(=O)Cc2ccc(OC(=O)CCCCC(*)=O)cc2)C(=O)OCC)cc1 (repeat unit) |
| 184.00 | *c1ccc(Oc2cccc(Oc3ccc(N4C(=O)c5ccc(Oc6ccc(Oc7ccc(Oc8ccc9c(c8)C(=O)N(*)C9=O)cc7)cc6)cc5C4=O)cc3)c2)cc1 (repeat unit) |
| 178.00 | *c1ccc(NC(=O)CCCCCCCC(=O)Nc2ccc(S(*)(=O)=O)cc2)cc1 (repeat unit) |
| 51.00 | *Oc1ccc(CC(NC(=O)Cc2ccc(OC(=O)COCC(*)=O)cc2)C(=O)OCCCCCCCC)cc1 (repeat unit) |
| 154.00 | *Oc1ccc(C(C)(C)c2cccc(C(C)(C)c3ccc(Oc4ccc(C(=O)Nc5ccc(NC(=O)c6ccc(*)cc6)cc5)cc4)cc3)c2)cc1 (repeat unit) |
| 46.00 | *CCCCCCCCCCNC(=O)CCCCCCCCCCCCCCCCC(=O)N* (repeat unit) |
| 160.00 | *Nc1ccc(Cc2ccc(NC(=O)CCCCCCCCC(*)=O)cc2)cc1 (repeat unit) |
| 54.00 | *CCCCCCNC(=O)CCCCCC(=O)N* (repeat unit) |
| 342.00 | *c1ccc(-c2cnc3cc(S(=O)(=O)c4ccc5nc(*)cnc5c4)ccc3n2)cc1 (repeat unit) |
| 286.00 | *c1ccc(-c2ccc(N3C(=O)c4ccc(Oc5ccc6c(c5)C(=O)N(*)C6=O)cc4C3=O)cc2)cc1 (repeat unit) |
| 231.30 | *Oc1ccc(S(=O)(=O)c2ccc(Oc3c(C)cc(C(C)(C)c4cc(C)c(*)c(C)c4)cc3C)cc2)cc1 (repeat unit) |
| 141.00 | */C=C/c1ccc(*)c(-c2c(OCC(CC)CCCC)ccc3cc(-c4ccccc4)ccc23)c1 (repeat unit) |
| 345.50 | *c1ccc(-c2ccc(-c3cnc4cc(-c5ccc6nc(*)cnc6c5)ccc4n3)cc2)cc1 (repeat unit) |

More lines, now with the values behind:

| Structure (SMILES) | glass transition temperature [°C] |
| --- | --- |
| *c1ccc(Oc2c(C)cc(Cc3cc(C)c(Oc4ccc(-n5c(=O)c6cc7c(=O)n(*)c(=O)c7cc6c5=O)cc4)c(C)c3)cc2C)cc1 (repeat unit) | 299.50 |
| *c1cccc(P(=O)(c2ccc(Oc3ccc(C45CC6CC(CC(C6)C4)C5)cc3)cc2)c2cccc(-n3c(=O)c4cc5c(=O)n(*)c(=O)c5cc4c3=O)c2)c1 (repeat unit) | 330.00 |
| *Oc1ccc(NC(=O)c2ccc(Oc3ccc(C(=O)Nc4ccc(Oc5ccc(C6(c7ccc(*)cc7)C7CC8CC(C7)CC6C8)cc5)cc4)cc3)cc2)cc1 (repeat unit) | 230.00 |
| *CC(C)(C)O* (repeat unit) | 40.50 |
| *CC(*)c1cccc(C)c1 (repeat unit) [Poly(m-methyl styrene) ] | 95 ± 11 |
| *N=P(N=P(/N=S(/*)Oc1ccc(-c2ccccc2)cc1)(Oc1ccc(-c2ccccc2)cc1)Oc1ccc(-c2ccccc2)cc1)(Oc1ccc(-c2ccccc2)cc1)Oc1ccc(-c2ccccc2)cc1 (repeat unit) | 69.00 |
| *c1cccc(Oc2ccc(P(=O)(c3ccccc3)c3ccccc3)c(Oc3cccc(N4C(=O)c5ccc(Oc6ccc(-c7ccc(Oc8ccc9c(c8)C(=O)N(*)C9=O)cc7)cc6)cc5C4=O)c3)c2)c1 (repeat unit) | 227.00 |
| *c1ncnc(N(CCCCCCN(*)c2ccccc2)c2ccccc2)n1 (repeat unit) | 72.00 |
| *CCCCOC(=O)CCSCCCCCCSCCC(=O)O* (repeat unit) | -73.00 |
| *CCCCCCCCNC(=O)CCCCCCCCCCCCCCCCCCCCC(=O)N* (repeat unit) | 48.00 |
| *CC(*)(C)C(=O)OCCN(CC)c1ccc(/N=N/c2nc3ccc([N+](=O)[O-])cc3s2)cc1 (repeat unit) | 140.00 |
| *C1OCOC(C(*)(F)F)C1(F)F (repeat unit) | 125.00 |
| *CCCCCCCCCCc1ccc(-c2c(-c3ccccc3)cc(-c3cccc(-c4cc(-c5ccccc5)c(-c5ccc(*)cc5)c(-c5ccccc5)c4-c4ccccc4)c3)c(-c3ccccc3)c2-c2ccccc2)cc1 (repeat unit) | 180.00 |
| *C([2H])([2H])C(*)([2H])C([2H])([2H])[2H] (repeat unit) | 0.00 |
| *CC(*)c1cc(Br)ccc1OC(C)C (repeat unit) | 35.00 |
| *CC(CSCCCCC)O* (repeat unit) | -68.00 |
| *O[Si](C)(C)O[Si](*)(C)CCCCCCCCOc1ccc(C(=O)Oc2ccc(C#N)cc2C)cc1 (repeat unit) | -15.00 |
| *c1ccc(C2(c3ccc(N4C(=O)C(c5ccccc5)=C(c5ccc(C6=C(c7ccccc7)C(=O)N(*)C6=O)cc5)C4=O)cc3)c3ccccc3-c3ccccc32)cc1 (repeat unit) | 340.00 |
| */C(CCCCCC)=C(/*)c1ccccc1 (repeat unit) | 200.00 |
| *CCCCCCOC(=O)OCCCOC(=O)OCCCCCCOc1ccc(Oc2ccc(O*)cc2)cc1 (repeat unit) | -6.00 |
| *CCC(C)C(*)(C)C(=O)OC (repeat unit) | 45.00 |

| Structure (SMILES) | glass transition temperature [°C] |
| --- | --- |
| *c1ccc(-c2nc3cc(S(=O)(=O)c4ccc5nc(-c6ccccc6)c(*)nc5c4)ccc3nc2-c2ccccc2)cc1 (repeat unit) | 345.00 |
| *c1cccc(OCCCCOc2cccc(N3C(=O)c4ccc(-c5cccc6c5C(=O)N(*)C6=O)cc4C3=O)c2)c1 (repeat unit) | 178.00 |
| */C=C/c1cc(OCC(CC)CCCC)c(*)cc1OC (repeat unit) | 79.00 |
| *Oc1ccc(OC(=O)c2ccc(C(*)=O)cc2Oc2ccc(F)cc2)cc1 (repeat unit) | 106.00 |
| *c1cn(*)c2ccccc12 (repeat unit) | 65.00 |
| *C(C)C(*)C(=O)OC(C)C (repeat unit) | 149.00 |
| *CC(O)COC(=O)/C=C/C(=O)Oc1ccc(C(C)(C)c2ccc(O*)cc2)cc1 (repeat unit) | 32.00 |
| *CC(*)c1ccc(C(=O)OCC)cc1 (repeat unit) | 94.00 |
| *C(=O)Nc1cccc(NC(=O)c2ccc3[nH]c(-c4cc(-c5nc6cc(*)ccc6[nH]5)cc(N5C(=O)c6ccccc6C5=O)c4)nc3c2)c1 (repeat unit) | 304.00 |
| *CC(*)c1ccc(C(=O)CC)cc1 (repeat unit) | 102.00 |
| *c1ccc(Oc2ccc(C(=O)c3cccc(C(=O)c4ccc(Oc5ccc(N6C(=O)c7ccc([Si](C)(C)c8ccc9c(c8)C(=O)N(*)C9=O)cc7C6=O)cc5)cc4)c3)cc2)cc1 (repeat unit) | 208.00 |
| *c1ccc(Cc2ccc(N(c3ccc(C)cc3)c3ccc(-c4ccc(N(*)c5ccc(C)cc5)cc4)cc3)cc2)cc1 (repeat unit) | 183.00 |
| *c1ccc(Oc2ccc(Oc3ccc(NC(=O)c4ccc(Oc5ccc6c(c5)C(=O)N(*)C6=O)cc4)cc3)cc2)cc1 (repeat unit) | 242.00 |
| *c1ccc(Oc2ccc(C(=O)c3ccc(Oc4ccc(C5(*)c6ccccc6C(=O)N5C)cc4)cc3)cc2)cc1 (repeat unit) | 245.00 |
| *CC(O)COc1ccc(C(C)(C)c2ccc(OCC(O)COc3ccc(C(=O)Nc4ccc(O*)cc4)cc3)cc2)cc1 (repeat unit) | 127.00 |
| *CC(*)C(=O)Oc1ccccc1C (repeat unit) | 51.50 |
| *CC(*)(C)C(=O)OCc1ccc(Cl)cc1Cl (repeat unit) | 19.40 |
| *Oc1ccc(S(=O)(=O)c2ccc(Oc3ccc(C(c4ccc(*)cc4)C(C)C)cc3)cc2)cc1 (repeat unit) | 200.00 |
| *Oc1ccc(Oc2ccc(P(C)(=O)c3ccc(*)cc3)cc2)cc1 (repeat unit) | 213.00 |
| *CC(O)COc1ccc(C(C)(C)c2ccc(OCC(O)COc3ccccc3C(=O)Nc3ccc(O*)cc3)cc2)cc1 (repeat unit) | 121.00 |
| *c1cc(CCCC)c(*)s1 (repeat unit) | 54.50 ± 6.4 |
